Drawing on PMC11930087, “Mobility of four structural regions drives isoform-specific properties of photoenzyme LPOR in plants” (The Journal of Biological Chemistry, 2025), this text covers Kd and Km for one molecule.

One assay addresses T1, SlPOR2 (Solanum lycopersicum, UniProt A0A3Q7IBI0).
T1 construct: gene POR; transit peptide removed; pET15b
T1 sequence (A0A3Q7IBI0 62-395): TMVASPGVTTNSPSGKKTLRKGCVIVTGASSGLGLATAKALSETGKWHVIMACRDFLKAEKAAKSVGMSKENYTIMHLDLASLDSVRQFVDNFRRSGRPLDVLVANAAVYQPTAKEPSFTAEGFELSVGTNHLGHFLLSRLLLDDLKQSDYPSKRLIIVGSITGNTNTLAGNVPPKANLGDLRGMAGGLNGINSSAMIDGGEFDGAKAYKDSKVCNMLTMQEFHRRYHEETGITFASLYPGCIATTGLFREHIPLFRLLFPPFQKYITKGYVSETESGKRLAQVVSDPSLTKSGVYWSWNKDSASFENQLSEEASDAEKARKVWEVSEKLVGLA
The assay is described as follows: […] K Pchlide fluorescence in darkness, F648/F635 ratio vs NADPH, hyperbolic fit. The format is binding. The settings on record: lipid-free; 5 μM Pchlide, 15 μM LPOR, pH 7.1, room-temperature dark incubation; apparent parameter, exact value in supplement; read-out: KM^D.

Assay [1] concerns the target T2, TaPOR1 (Triticum aestivum, UniProt Q41578).
T2 construct: gene PORA
T2 sequence (Q41578 75-388): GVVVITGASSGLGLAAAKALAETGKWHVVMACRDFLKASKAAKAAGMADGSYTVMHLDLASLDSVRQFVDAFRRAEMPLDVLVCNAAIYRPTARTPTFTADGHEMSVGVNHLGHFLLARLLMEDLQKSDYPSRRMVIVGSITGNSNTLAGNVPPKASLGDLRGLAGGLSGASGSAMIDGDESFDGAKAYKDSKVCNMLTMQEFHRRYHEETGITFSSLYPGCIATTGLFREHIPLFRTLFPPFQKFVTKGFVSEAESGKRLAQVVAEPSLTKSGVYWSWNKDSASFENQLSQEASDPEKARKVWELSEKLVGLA
Described as above. It counts as binding. The settings on record: lipid-free; 5 μM Pchlide, 15 μM LPOR, pH 7.1, room-temperature dark incubation; apparent parameter, exact value in supplement; read-out: KM^D.

Another assay deals with T3, SlPOR3 (Solanum lycopersicum, UniProt A0A3Q7J565).
T3 construct: gene LOC101248079; transit peptide removed; pET15b
T3 sequence (A0A3Q7J565 63-397): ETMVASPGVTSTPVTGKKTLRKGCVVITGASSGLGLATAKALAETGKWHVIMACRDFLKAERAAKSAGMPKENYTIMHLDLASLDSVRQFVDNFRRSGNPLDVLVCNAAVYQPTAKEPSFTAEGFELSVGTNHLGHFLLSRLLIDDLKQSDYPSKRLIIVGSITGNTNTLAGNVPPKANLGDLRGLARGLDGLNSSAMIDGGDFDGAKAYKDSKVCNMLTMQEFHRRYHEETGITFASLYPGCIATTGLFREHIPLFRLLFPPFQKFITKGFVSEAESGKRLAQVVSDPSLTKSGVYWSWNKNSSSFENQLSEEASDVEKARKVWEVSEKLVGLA
Described as above. The format is binding. The settings on record: lipid-free; 5 μM Pchlide, 15 μM LPOR, pH 7.1, room-temperature dark incubation; apparent parameter, exact value in supplement; read-out: KM^D.

The target of the next assay is T4, AtPORA (Arabidopsis thaliana, UniProt Q42536).
T4 construct: gene PORA
T4 sequence (Q42536 70-405): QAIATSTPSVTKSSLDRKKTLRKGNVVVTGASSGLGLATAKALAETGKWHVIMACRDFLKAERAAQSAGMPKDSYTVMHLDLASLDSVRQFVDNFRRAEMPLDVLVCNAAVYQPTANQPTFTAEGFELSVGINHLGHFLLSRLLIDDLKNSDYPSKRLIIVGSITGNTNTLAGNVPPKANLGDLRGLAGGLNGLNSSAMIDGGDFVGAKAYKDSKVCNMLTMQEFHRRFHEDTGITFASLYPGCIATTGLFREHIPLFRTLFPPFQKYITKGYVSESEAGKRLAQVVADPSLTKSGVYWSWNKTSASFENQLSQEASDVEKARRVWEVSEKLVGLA
The settings on record: 400 uM OPT lipids; substrate; read-out: illuminated, 400 uM OPT, KM^L. An excerpt:
(§1) All samples were thawed in darkness, illuminated for 20 s to initiate the reaction, and then frozen again and remeasured. […] These plots also resembled saturation curves, to which a hyperbolic function similar to the modified Michaelis–Menten equation could be fitted (Figs. 3C, S5, Materials and Methods).

In a further assay the target is T5, AtPORB (Arabidopsis thaliana, UniProt P21218).
T5 construct: gene PORB
T5 sequence (P21218 67-401): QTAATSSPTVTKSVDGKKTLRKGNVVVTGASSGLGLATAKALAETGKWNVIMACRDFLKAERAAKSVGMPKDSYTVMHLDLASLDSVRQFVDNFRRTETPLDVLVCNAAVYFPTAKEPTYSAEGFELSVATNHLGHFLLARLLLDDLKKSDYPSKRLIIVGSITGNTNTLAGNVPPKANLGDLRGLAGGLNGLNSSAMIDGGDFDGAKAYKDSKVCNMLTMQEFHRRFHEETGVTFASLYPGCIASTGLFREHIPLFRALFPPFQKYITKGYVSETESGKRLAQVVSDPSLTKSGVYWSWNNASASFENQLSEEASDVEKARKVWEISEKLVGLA
The settings on record: 400 uM OPT lipids; substrate; read-out: illuminated, 400 uM OPT, KM^L.
Description: as §1

In a further assay the target is T6, AtPORC (Arabidopsis thaliana, UniProt O48741).
T6 construct: gene PORC
T6 sequence (O48741 68-401): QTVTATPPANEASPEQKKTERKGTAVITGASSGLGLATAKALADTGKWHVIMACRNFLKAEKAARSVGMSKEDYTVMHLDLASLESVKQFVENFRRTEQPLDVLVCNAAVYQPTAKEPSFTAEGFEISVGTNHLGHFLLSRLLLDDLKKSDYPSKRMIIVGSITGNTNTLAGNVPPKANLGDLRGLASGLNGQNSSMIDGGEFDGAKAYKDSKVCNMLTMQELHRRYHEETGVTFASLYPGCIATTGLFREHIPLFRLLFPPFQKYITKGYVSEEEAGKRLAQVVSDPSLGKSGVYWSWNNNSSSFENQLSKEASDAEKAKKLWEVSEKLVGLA
The settings on record: 400 uM OPT lipids; substrate; read-out: illuminated, 400 uM OPT, KM^L.
Description: as §1

The target of assay [2] is T2, TaPOR1. The settings on record: 400 uM OPT lipids; substrate; read-out: illuminated, 400 uM OPT, KM^L.
Description: as §1

For a further assay, the target named is T7, TaPOR2 (Triticum aestivum, UniProt A0A3B5XZQ9).
T7 construct: gene LOC123047424
T7 sequence (A0A3B5XZQ9 60-395): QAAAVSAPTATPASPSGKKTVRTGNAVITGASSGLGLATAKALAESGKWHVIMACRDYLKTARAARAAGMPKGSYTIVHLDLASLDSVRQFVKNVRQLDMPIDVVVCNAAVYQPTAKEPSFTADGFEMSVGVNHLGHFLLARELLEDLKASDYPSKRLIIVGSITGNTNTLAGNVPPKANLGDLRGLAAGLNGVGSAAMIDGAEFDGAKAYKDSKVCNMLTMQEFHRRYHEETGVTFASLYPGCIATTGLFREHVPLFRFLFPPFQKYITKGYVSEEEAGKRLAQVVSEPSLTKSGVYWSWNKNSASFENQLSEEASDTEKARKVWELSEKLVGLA
The settings on record: 400 uM OPT lipids; substrate; read-out: illuminated, 400 uM OPT, KM^L.
Description: as §1

Some results are limits rather than exact numbers.

Consider `NC(=O)C1=CN([C@@H]2O[C@H](COP(=O)(O)OP(=O)(O)OC[C@H]3O[C@@H](n4cnc5c(N)ncnc54)[C@H](OP(=O)(O)O)[C@@H]3O)[C@@H](O)[C@H]2O)C=CC1` [NADPH], for which the Kd at SlPOR2 is below 10 µM; on TaPOR1 [1], above 100 µM; on SlPOR3 it was below 10 µM. The Km (usually the substrate concentration at which the rate is half of its maximum) is 2.5 µM at AtPORA; 1.3 µM at AtPORB; 0.7 µM at AtPORC; 39.7 µM at TaPOR1 [2]; 6.1 µM on TaPOR2.
